Structures are written as SMILES.

By Ki is commonly meant the dissociation constant of the complex between target and ligand, obtained from inhibition or displacement. Low readings indicate a stronger hold on the target, high ones a looser hold on the target. The IC50 is the concentration at which inhibition is half-maximal. A lower IC50 goes with greater potency in that assay.

The target of the first assay is T1, Estrogen receptor (Homo sapiens, UniProt Q92731+P03372). In words: Binding affinity for estrogen receptor of human breast carcinoma (MCF-7) cell line.
The compound `CN(C)CCOc1ccc(C2=C(c3ccccc3)CCOc3ccccc32)cc1` had a Ki of 3.2 µM.

In another assay the target is T1, Estrogen receptor. In words: Binding affinity for estrogen receptor of human breast carcinoma (MCF-7) cell line; 828 +/- 106 […].
In turn, `Cc1ccc(C2=C(c3ccc(OCCN(C)C)cc3)c3ccccc3OCC2)cc1` displayed a Ki of 0.828 µM.

In a further assay the target is T1, Estrogen receptor. The experiment in a line: Inhibition of estrogen receptor positive human breast carcinoma (MCF-7) cell proliferation. Type of assay: functional.
`COc1ccccc1C1=C(c2ccc(OCCN(C)C)cc2)c2ccccc2OCC1`: the IC50 was found to be 11.7 µM.
Take `Cc1ccc(C2=C(c3ccc(OCCN(C)C)cc3)c3ccccc3OCC2)cc1`: the IC50 was 15.7 µM.
The same measure, in the same setting: as for `Cc1cccc(C2=C(c3ccc(OCCN(C)C)cc3)c3ccccc3OCC2)c1`, the figure is 33.6 µM; as for `CN(C)CCOc1ccc(C2=C(c3ccc(Cl)cc3)CCOc3ccccc32)cc1`, 18.3 µM.
With `COc1ccc(C2=C(c3ccc(OCCN(C)C)cc3)c3ccccc3OCC2)cc1`, the IC50 was 11.1 µM. Compared with the last compound, the IC50 is about 1.6-fold lower.
The same measure, in the same setting: the result for `CN(C)CCOc1ccc(C2=C(c3ccc(C#N)cc3)CCOc3ccccc32)cc1` reads 74.3 µM; that for `COc1cccc(C2=C(c3ccc(OCCN(C)C)cc3)c3ccccc3OCC2)c1`, 56.6 µM.
Still for that read-out and setting: as for `c1ccc(C2=C(c3ccc(OCCN4CCCCC4)cc3)c3ccccc3OCC2)cc1`, the figure is 10.6 µM; as for `c1ccc(C2=C(c3ccc(OCCN4CCCC4)cc3)c3ccccc3OCC2)cc1`, 6.1 µM.
On to `CN(C)CCOc1ccc(C2=C(c3ccccc3)CCOc3ccccc32)cc1`, for which the half-inhibitory concentration (IC50) was 16.2 µM. Against the preceding compound, the IC50 is about 2.7-fold higher.
On the same count and under the same terms, as for `CN(C)CCOc1ccc(C2=C(c3cccc([N+](=O)[O-])c3)CCOc3ccccc32)cc1`, the figure is 64.6 µM.
Same read-out and setting: as for `c1ccc(C2=C(c3ccc(OCCN4CCOCC4)cc3)c3ccccc3OCC2)cc1`, the figure is 7.6 µM; as for `CCN(CC)CCOc1ccc(C2=C(c3ccccc3)CCOc3ccccc32)cc1`, 14.2 µM.
